Experimental data taken from PubChem BioAssay AID330 (DTP/NCI, 2004).
Where “and” joins values, the source holds several entries; their conditions need not be identical. Equal entries are not always repeated. Toxic doses and inconclusive results are not listed. How the source made its calls: active means survival T/C of 150% or more; inactive means T/C below 125% in these data. Peptide text beside a SMILES is read from it. * marks the point of attachment. Boc = CC(C)(C)OC(=O)*

System: P388 leukemia ip, CD2F1 mice, survival T/C
Assay: NCI In Vivo Anticancer Drug Screen. Data for tumor model P388 Leukemia (intraperitoneal) in CD2F1 (CDF1) mice
Settings: endpoint: median survival time, higher = longer survival
Method in brief: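 Mice carrying the transplanted tumor received test compound or vehicle. Survival was recorded in each group, and the value is the treated-group measurement divided by that of the vehicle-treated control group.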

[1] = dose: 60.0 mg/kg/injection, schedule: Q01DX005 (ip), vehicle: saline with Tween-80
[2] = dose: 120.0 mg/kg/injection, schedule: Q01DX005 (ip), vehicle: saline with Tween-80
[3] = dose: 240.0 mg/kg/injection, schedule: Q01DX005 (ip), vehicle: saline with Tween-80
[4] = dose: 60.0 mg/kg/injection, schedule: Q01DX005 (ip), vehicle: Klucel (hydroxypropylcellulose) (HPC)
[5] = dose: 120.0 mg/kg/injection, schedule: Q01DX005 (ip), vehicle: Klucel (hydroxypropylcellulose) (HPC)
[6] = dose: 240.0 mg/kg/injection, schedule: Q01DX005 (ip), vehicle: Klucel (hydroxypropylcellulose) (HPC)
[7] = dose: 12.5 mg/kg/injection, schedule: Q01DX009 (ip), vehicle: saline with Tween-80
[8] = dose: 25.0 mg/kg/injection, schedule: Q01DX009 (ip), vehicle: saline with Tween-80
[9] = dose: 50.0 mg/kg/injection, schedule: Q01DX009 (ip), vehicle: saline with Tween-80
[10] = dose: 50.0 mg/kg/injection, schedule: Q01DX005 (ip), vehicle: saline with Tween-80
[11] = dose: 100.0 mg/kg/injection, schedule: Q01DX005 (ip), vehicle: saline with Tween-80
[12] = dose: 200.0 mg/kg/injection, schedule: Q01DX005 (ip), vehicle: saline with Tween-80
[13] = dose: 50.0 mg/kg/injection, schedule: Q01DX005 (ip), vehicle: Klucel (hydroxypropylcellulose) (HPC)
[14] = dose: 100.0 mg/kg/injection, schedule: Q01DX005 (ip), vehicle: Klucel (hydroxypropylcellulose) (HPC)
[15] = dose: 200.0 mg/kg/injection, schedule: Q01DX005 (ip), vehicle: Klucel (hydroxypropylcellulose) (HPC)
[16] = dose: 50.0 mg/kg/injection, schedule: Q01DX009 (ip), vehicle: Klucel (hydroxypropylcellulose) (HPC)
[17] = dose: 100.0 mg/kg/injection, schedule: Q01DX009 (ip), vehicle: Klucel (hydroxypropylcellulose) (HPC)
[18] = dose: 200.0 mg/kg/injection, schedule: Q01DX009 (ip), vehicle: Klucel (hydroxypropylcellulose) (HPC)
[19] = dose: 100.0 mg/kg/injection, schedule: Q04DX002 (ip), vehicle: saline with Tween-80
[20] = dose: 200.0 mg/kg/injection, schedule: Q04DX002 (ip), vehicle: saline with Tween-80
[21] = dose: 400.0 mg/kg/injection, schedule: Q04DX002 (ip), vehicle: saline with Tween-80
[22] = dose: 50.0 mg/kg/injection, schedule: Q01DX009 (ip), vehicle: saline
[23] = dose: 100.0 mg/kg/injection, schedule: Q01DX009 (ip), vehicle: saline

Measured: T/C

CSC1=NC(C)(C)N=C(Oc2cc(Cl)cc(Cl)c2)N1
inactive: [1] 89 % of control | [2] 94 % of control | [3] 92 % of control

O=C1S/C(=C2\C(=O)N(CN3CCCCC3)c3ccccc32)C(=O)N1CN1CCCCC1
inactive: [4] 99 % of control | [5] 96 % of control | [6] 92 % of control

CN(C)c1ccc(/C=C\C(=O)c2ccc(C(=O)/C=C/c3ccc(N(C)C)cc3)cc2)cc1
inactive: [7] 99 % of control | [8] 96 % of control | [9] 90 % of control

CC(=O)/C(N=Nc1ccc(F)cc1F)=C(\C)O
inactive: [10] 103 % of control | [11] 103 % of control | [12] 107 % of control

O=P(c1ccccc1)(c1ccccc1)c1ccccc1OCCOCCOc1ccccc1P(=O)(c1ccccc1)c1ccccc1
inactive: [13] 100 % of control | [14] 91 % of control | [15] 99 % of control

CN1C(=O)C(Cc2cnc[nH]2)NC1=S (stereo not given)
inactive: [4] 101 % of control | [5] 111 % of control | [6] 93 % of control

O=S(=O)(O)N(O)c1ccccc1
inactive: dose: 25.0 mg/kg/injection, schedule: Q01DX001 (ip), vehicle: saline 103 % of control and 97 % of control | dose: 50.0 mg/kg/injection, schedule: Q01DX001 (ip), vehicle: saline 113 % of control and 95 % of control | dose: 100.0 mg/kg/injection, schedule: Q01DX001 (ip), vehicle: saline 106 % of control and 124 % of control | dose: 200.0 mg/kg/injection, schedule: Q01DX001 (ip), vehicle: saline 94 % of control

CC1CCC2(CC1=O)C(C)CC(=O)C2C(C)C (stereo not given)
inactive: [16] 112 % of control | [17] 114 % of control | dose: 100.0 mg/kg/injection, schedule: Q04DX003 (ip), vehicle: other 95 % of control | [18] 98 % of control | dose: 200.0 mg/kg/injection, schedule: Q04DX003 (ip), vehicle: other 90 % of control | dose: 400.0 mg/kg/injection, schedule: Q04DX003 (ip), vehicle: other 100 % of control

CN(C)c1ccc(CCc2nc(N)nc3nccnc23)cc1
inactive: dose: 50.0 mg/kg/injection, schedule: Q04DX003 (ip), vehicle: Klucel (hydroxypropylcellulose) (HPC) 96 % of control | dose: 100.0 mg/kg/injection, schedule: Q04DX003 (ip), vehicle: Klucel (hydroxypropylcellulose) (HPC) 90 % of control | dose: 200.0 mg/kg/injection, schedule: Q04DX003 (ip), vehicle: Klucel (hydroxypropylcellulose) (HPC) 96 % of control | dose: 400.0 mg/kg/injection, schedule: Q04DX003 (ip), vehicle: Klucel (hydroxypropylcellulose) (HPC) 99 % of control

CCOc1c(N=Nc2cccc([N+](=O)[O-])c2)c(C)nn1C(N)=S
inactive: dose: 15.0 mg/kg/injection, schedule: Q01DX005 (ip), vehicle: Klucel + Tween-80 92 % of control | dose: 30.0 mg/kg/injection, schedule: Q01DX005 (ip), vehicle: Klucel + Tween-80 94 % of control

C#CC(OS(=O)(=O)C(F)(F)F)=C(C)C
inactive: [10] 99 % of control | [11] 100 % of control | [12] 100 % of control

COc1ccc(C2CC(c3ccccc3)=Nc3ccccc3S2)cc1OC (stereo not given)
inactive: [16] 102 % of control | [17] 90 % of control | [18] 96 % of control

CCOC(=O)C(CCC(=O)O)NC(=O)C(CCSC)NC(=O)OC(C)(C)C (stereo not drawn) (Boc-Met-Glu-OEt; configuration not given here)
inactive: [13] 102 % of control | [14] 102 % of control | [15] 97 % of control

Oc1cc(CN2CCOCC2)c(O)cc1CN1CCOCC1
inactive: dose: 1.56 mg/kg/injection, schedule: Q01DX009 (ip), vehicle: saline with Tween-80 100 % of control | dose: 3.13 mg/kg/injection, schedule: Q01DX009 (ip), vehicle: saline with Tween-80 119 % of control and 121 % of control | dose: 6.25 mg/kg/injection, schedule: Q01DX009 (ip), vehicle: saline with Tween-80 113 % of control | [7] 113 % of control | [8] 117 % of control

O=C1OC(C2OC(=O)C(=O)C2C(=O)c2cccc([N+](=O)[O-])c2)C(C(=O)c2cccc([N+](=O)[O-])c2)C1=O (stereo not given)
inactive: [1] 100 % of control | [2] 105 % of control | [3] 100 % of control

Cc1ccc(N2N=NC3C4CCC(C)(C4(C)C)C32O)cc1 (stereo not given)
inactive: dose: 50.0 mg/kg/injection, schedule: Q04DX002 (ip), vehicle: other 92 % of control | dose: 100.0 mg/kg/injection, schedule: Q04DX002 (ip), vehicle: other 98 % of control | dose: 200.0 mg/kg/injection, schedule: Q04DX002 (ip), vehicle: other 93 % of control

CCOCCN1CCN(CCCN2c3ccccc3Sc3ccc(C(F)(F)F)cc32)CC1
inactive: dose: 6.25 mg/kg/injection, schedule: Q04DX003 (ip), vehicle: saline 104 % of control and 88 % of control | dose: 12.5 mg/kg/injection, schedule: Q04DX003 (ip), vehicle: saline 110 % of control and 118 % of control | dose: 25.0 mg/kg/injection, schedule: Q04DX003 (ip), vehicle: saline 115 % of control

C=CC(C)(CCC=C(C)C)ON(CC)CC (stereo not given)
inactive: [19] 108 % of control | [20] 113 % of control | [21] 92 % of control

CSc1cnc(N)s1
inactive: dose: 12.5 mg/kg/injection, schedule: Q01DX009 (ip), vehicle: Klucel (hydroxypropylcellulose) (HPC) 108 % of control | dose: 25.0 mg/kg/injection, schedule: Q01DX009 (ip), vehicle: Klucel (hydroxypropylcellulose) (HPC) 115 % of control | [16] 100 % of control | [17] 104 % of control

CCCCCCCCCCCC(=O)OC/C=C/COC(=O)c1ccccc1
inactive: [16] 100 % of control | [17] 108 % of control | [18] 96 % of control

O=C(Oc1ccc[nH]c1=O)c1ccc(F)cc1
inactive: [22] 99 % of control and 104 % of control | [23] 100 % of control and 101 % of control | dose: 200.0 mg/kg/injection, schedule: Q01DX009 (ip), vehicle: saline 106 % of control and 108 % of control | dose: 400.0 mg/kg/injection, schedule: Q01DX009 (ip), vehicle: saline 111 % of control

O=C(O)/C=C/c1c(-c2ccccc2)sc2ccccc2c1=O
inactive: [19] 93 % of control | [20] 97 % of control | [21] 97 % of control

CN(CCO)c1n[nH]c(=O)c2ccccc12
inactive: [9] 109 % of control | dose: 100.0 mg/kg/injection, schedule: Q01DX009 (ip), vehicle: saline with Tween-80 101 % of control | dose: 200.0 mg/kg/injection, schedule: Q01DX009 (ip), vehicle: saline with Tween-80 101 % of control

CCC(=O)NC(CC(C)C)C(=O)NC(CC(C)C)C(=O)NC(C=O)CCCN=C(N)N (stereo not given) (tested in a mixture with another compound)
inactive: dose: 6.25 mg/kg/injection, schedule: Q01DX009 (ip), vehicle: saline 103 % of control | dose: 12.5 mg/kg/injection, schedule: Q01DX009 (ip), vehicle: saline 102 % of control and 104 % of control | dose: 25.0 mg/kg/injection, schedule: Q01DX009 (ip), vehicle: saline 104 % of control and 96 % of control | [22] 102 % of control and 108 % of control | [23] 110 % of control

Cc1cc(N(CCO)CCO)c(OCc2ccccc2)c(N(CCO)CCO)c1
inactive: [4] 99 % of control | [5] 100 % of control | [6] 98 % of control

Cc1c(C)c2c(N)c3ccccc3nc2c2ccccc12
inactive: dose: 12.5 mg/kg/injection, schedule: Q01DX001 (ip), vehicle: saline with Tween-80 101 % of control | dose: 25.0 mg/kg/injection, schedule: Q01DX001 (ip), vehicle: saline with Tween-80 100 % of control | dose: 50.0 mg/kg/injection, schedule: Q01DX001 (ip), vehicle: saline with Tween-80 115 % of control | dose: 100.0 mg/kg/injection, schedule: Q01DX001 (ip), vehicle: saline with Tween-80 111 % of control

CCC(CC)C(=O)NC(=O)NC(N)=O
inactive: [1] 97 % of control | [2] 97 % of control | [3] 112 % of control

COC(=O)c1ccc(N=NN(C)CO)cc1
inactive: [1] 97 % of control | [2] 108 % of control | [3] 115 % of control
